Assay results reported in patent US5541183A, “Ginkgolide derivatives” (priority 1993, dated 1996).
Where two headings read alike, the source gives them in different places.

What was measured:
[1] = tested on: PAF-induced rabbit platelet aggregation; assay: PAF-induced rabbit platelet aggregation; assay type: cell-based, rabbit (New Zealand white); settings: Oryctolagus cuniculus, read-out: IC50, inhibition of PAF-induced rabbit platelet aggregation
Procedure: Pharmacology Example 1: PAF-induced rabbit platelet aggregation
Blood was collected from the ear artery of a male New Zealand white rabbit and mixed with 3.8% sodium citrate in a 9:1 volume ratio. Platelet rich plasma (PRP) was obtained by centrifugation of the blood at 150 g for 10 min at room temperature. The number of platelets was adjusted to 3×10^8 platelets/ml with platelet poor plasma. Platelet aggregation was monitored by continuous recording of light transmission in a dual-channel aggregometer (Chrono-Log 560-VS) coupled with a two channel recorder (Chrono-Log 707). Stirred PRP was treated with various concentrations of the test compounds or vehicle (0.5% DMSO) for 2 min and then PAF(5×10^-9 M) was added to induce platelet aggregation.
Inhibition values were calculated by comparing the extent of aggregation obtained in the presence of the vehicle alone (0.5% DMSO) and in the presence of a test compound. Log concentration-response curves were generated and the IC50 values were determined by regression analysis.
Table 1 lists results from this assay for inhibition of PAF-induced rabbit platelet aggregation for illustrative examples of the compounds of this invention.

[2] = tested on: Ag-induced bronchoconstriction; assay: Ag-induced bronchoconstriction in the guinea pig; assay type: in vivo, guinea pig (Hartley strain); settings: for ED50: Cavia porcellus, iv, 10 min, read-out: ID50, Ag-induced bronchoconstriction
Procedure: Pharmacology Example 3: Ag-induced bronchoconstriction
All experiments utilized male guinea pigs (Hartley strain), weighing 350 to 500 g. The animal was passively sensitized with rabbit anti-chicken egg albumin (1.3 mg/kg), 17-24 hrs before ovaibumin challenge. Passively sensitized animals were anesthetized with ethyl carbamate 1.5 g/kg, i.p.). An intratracheal cannula was inserted into trachea and indwelling catheters were inserted into the right carotid artery and left jugular vein. The animals were ventilated with a small animal respirator (UGO BASILE 7025, 70 breaths/min, 1 ml/stroke/100 g). To monitor dead or not, mean arterial pressure was measured continuously with a pressure transducer (Physiological Pressure Transducer, MICRON INSTRUMENT MP-15) connected to an amplifier (COULBOURN INSTRUMENT 572-25) and recorder (COULBOURN INSTRUMENT R14-18). The rate of bronchoconstriction was measured as an increase in lung overflow with a bronchospasm transducer (UGO BASILE 7020) from a side arm off the tracheal cannula, and expressed as a percentage of maximum broncoconstriction obtained by clamping off the tracheal cannular. Test compounds or vehicle (0.5% DMSO) were administered through the cannula into the jugular vein and ovalbumin (1.0 mg/kg, i.v.) was administered 10 minutes later. Bronchoconstriction response was compared to that obtained with control group treated with vehicle. Percent inhibition was calculated for each dose. If necessary, log dose-response curves were generated and the ID50 values were determined by regression analysis.

[3] = tested on: PAF-induced bronchoconstriction; assay: PAF-induced bronchoconstriction in the guinea pig; assay type: in vivo, guinea pig (Hartley strain); settings: for % inhibition of PAF-induced bronchoconstriction: jugular vein, PAF 100 ng/kg i.v.
Procedure: Pharmacology Example 2: PAF-induced bronchoconstriction
All experiments utilized male guinea pigs (Hartley strain), weighing 350 to 450 g, that were anesthetized with ethyl carbamate (1.5 g/kg, i.p.). An intratracheal cannula was inserted into trachea and indwelling catheters were inserted into the right carotid artery and left jugular vein. The animals were ventilated with a small animal respirator (UGO BASILE 7025, 70 breaths/min, 1 ml/stroke/100 g). To monitor dead or not, mean arterial pressure was measured continuously with a pressure transducer (Physiological Pressure Transducer, MICRON INSTRUMENT MP-15) connected to an amplifier (COULBOURN INSTRUMENT 572-25) and recorder (COULBOURN INSTRUMENT R14-18). The rate of bronchoconstriction was measured as an increase in lung overflow with a bronchospasm transducer (UGO BASILE 7020) from a side arm off the tracheal cannula, and expressed as a percentage of maximum bronchoconstriction obtained by clamping off the tracheal cannula. Test compounds or vehicle (0.5% DMSO) were administered through the cannula into the jugular vein and PAF (100 ng/kg, i.v.) was administered. Bronchoconstriction response was compared to that obtained with control group treated with vehicle. Percent inhibition was calculated for each dose. Log dose-response curves were generated and the ID50 values were determined by regression analysis, and the results are presented in Table 2.
Table 2: Results for inhibition of PAF-induced bronchoconstriction in the guinea pig.

[4] = tested on: bronchial eosinophilia; assay: aeroallergen-induced bronchial infiltration of eosinophils in the bronchoalveolar lavage fluid; assay type: in vivo, guinea pig (Hartley strain); settings: 30 mg/kg p.o., + 4h after aeroallergen challenge
Procedure: Pharmacology Example 4: The aeroallergen-induced bronchial infiltration of eosinophils in the bronchoalveolar lavage fluid.
Adult, male Hartley-strain guinea pigs weighing 492-735 g were sensitized by intraperitoneal injection of 10 μg ovalbumin (OA) mixed in 100-mg aluminum hydroxide. And guinea pigs were pretreated with pyrilamine (1.0 mg/kg) intraperitoneally 30 min. before aeroallergen challenge. Individual guinea pigs were placed in a two-liter glass chamber and exposed to a five aerosol of OA solution (0.5 mg/ml in saline containing 0.02% antifoal emulsion for a period of 10 min.).
4 hours after aero allergen challenge, the guinea pigs received either vehicle or compounds suspended in 1% acacia by oral garage.
24 hours after aero allergen challenge, the animals were euthanized with an i.p. overdose of pentobarbital sodium (100 mg/kg). The abdominal cavity was opened, and the animal was exsaguinated by cutting the abdominal aorta. A midline incision was made through the rib cage, exposing the heart and lungs.
The trachea was cannulated with an 18-gauge stainless steel feeding tube; 20 ml/kg of prewarmed (37° C.) physiological saline was instilled and the BALF was gently withdrawn.
BALF (amounting to 60-80% of the saline infused) was transferred to a 10 ml vacutainer containing 0.10 ml of 15% EDTA solution and centrifugated at 2400 rpm for 10 min.
The supernatant was poured off, and the cell pellet was suspended in physiological saline equal to the ratio of BALF recovered (ml) and physiological saline instilled in the lungs (ml), multiplied by two.
The eosinophils in BALF were counted by Unopette Test 5877.
The mean numbers of eosinophils±SEM in the BALF of compound-treated animals and corresponding control "vehicle"-treated animals were compared by Student's t-test. A P value of 0.05 or less was considered significant. Table 4 lists results from this assay for inhibition of bronchial eosinophilia for illustrative examples of this invention.

[5] = 0.1 mg/kg, jugular vein, ovalbumin 1.0 mg/kg i.v. 10 minutes later
[6] = 0.5 mg/kg, jugular vein, ovalbumin 1.0 mg/kg i.v. 10 minutes later
[7] = 1.0 mg/kg, jugular vein, ovalbumin 1.0 mg/kg i.v. 10 minutes later
[8] = jugular vein, ovalbumin 1.0 mg/kg i.v. 10 minutes later

Q: What does the source list for `Cc1cnc(COC2C(=O)OC3OC45C(=O)OC6CC(C(C)(C)C)C32C64C(O)C2OC(=O)C(C)C25O)c(C)c1N` (centres unmarked) [Example 103, 10-(3,5-dimethyl-4-amino-2-pyridinyl)-methoxy-Ginkgolide B]?
A: IC50 ([1]; rabbit PRP, PAF 5×10^-9 M): 87.7 nM; % inhibition of Ag-induced bronchoconstriction [2, 5]: 10%; % inhibition of Ag-induced bronchoconstriction [2, 6]: 62%; % inhibition of Ag-induced bronchoconstriction [2, 7]: 97%; ED50 [2, 8]: 0.48 mg/kg

Q: `COc1c(C)cnc(COC2C(=O)OC3OC45C(=O)OC6CC(C(C)(C)C)C32C64C(O)C2OC(=O)C(C)C25O)c1C` (centres unmarked) [Example 97, 10-(4-methoxy-3,5-dimethyl-2-pyridinyl) -methoxy-Ginkgolide B] was tested. Which IC50 ([1]; rabbit PRP, PAF 5×10^-9 M) did it give?
A: Its IC50 is 38.9 nM.

Q: What about the “% inhibition of Ag-induced bronchoconstriction” value [2, 5] of the same molecule?
A: The value was 30%.

Q: And the “% inhibition of Ag-induced bronchoconstriction” value [2, 6]?
A: Its value is 68%.

Q: And the “% inhibition of Ag-induced bronchoconstriction” value [2, 7]?
A: The value was 100%.

Q: What about the ED50 [2, 8] of the same molecule?
A: Its ED50 is 0.42 mg/kg.

Q: With `CC1C(=O)OC2C(O)C34C5CC(C(C)(C)C)C36C(OC(=O)C6OCc3ccc([N+](=O)[O-])cc3)OC4(C(=O)O5)C12O` (centres unmarked) [Example 44] as the molecule, how does the IC50 [1] read?
A: The IC50 was 83.1 nM.

Q: `CC1C(=O)OC2C(O)C34C5CC(C(C)(C)C)C36C(OC(=O)C6OCc3ccc(I)cc3)OC4(C(=O)O5)C12O` (centres unmarked) [Example 5] was tested. Which IC50 [1] did it give?
A: Its IC50 is 50.1 nM.

Q: With `CC1C(=O)OC2C(O)C34C5CC(C(C)(C)C)C36C(OC(=O)C6OCc3cccc(F)c3)OC4(C(=O)O5)C12O` (centres unmarked) [Example 84, 10-(3'-fluorobenzyloxy)-Ginkgolide B] as the molecule, how does the IC50 ([1]; rabbit PRP, PAF 5×10^-9 M) read?
A: Its IC50 is 68 nM.

Q: Which IC50 ([1]; rabbit PRP, PAF 5×10^-9 M) does the source give for `CC1C(=O)OC2C(O)C34C5CC(C(C)(C)C)C36C(OC(=O)C6OCCN3CCNCC3)OC4(C(=O)O5)C12O` (centres unmarked) [Example 121, 10-(2'-(1"-piperazinyl)-ethoxy)-Ginkgolide B] here?
A: The IC50 was 57.1 nM.

Q: `CC1C(=O)OC2C(O)C34C5CC(C(C)(C)C)C36C(OC(=O)C6OCc3c(F)c(F)c(F)c(F)c3F)OC4(C(=O)O5)C12O` (centres unmarked) [Example 83, 10-(2',3',4',5',6'-pentafluorobenzyloxy)-Ginkgolide B] was tested. Which IC50 [1] did it give?
A: Its IC50 is 71.7 nM.

Q: `CC1C(=O)OC2C(O)C34C5CC(C(C)(C)C)C36C(OC(=O)C6OCc3ccc(C(F)(F)F)cc3)OC4(C(=O)O5)C12O` (centres unmarked) [Example 94, 10-(4'-trifluoromethylbenzyloxy)-Ginkgolide B] was tested. Which IC50 ([1]; rabbit PRP, PAF 5×10^-9 M) did it give?
A: The IC50 was 121 nM.

Q: Which results are given for `CC1C(=O)OC2C(O)C34C5CC(C(C)(C)C)C36C(OC(=O)C6O)OC4(C(=O)O5)C12O` (centres unmarked) [Ginkgolide B, reference compound]?
A: IC50 ([1]; rabbit PRP, PAF 5×10^-9 M): 258 nM; % inhibition of PAF-induced bronchoconstriction ([3]; 0.50 mg/kg): 38%; % inhibition of PAF-induced bronchoconstriction ([3]; 1.00 mg/kg): 64%; % inhibition of PAF-induced bronchoconstriction ([3]; 2.00 mg/kg): 100%; ED50 ([3]; Cavia porcellus, iv, read-out: ID50, PAF-induced bronchoconstriction): 0.6 mg/kg; % inhibition of Ag-induced bronchoconstriction [2, 5]: 10%; % inhibition of Ag-induced bronchoconstriction [2, 6]: 42%; % inhibition of Ag-induced bronchoconstriction [2, 7]: 82%; ED50 [2, 8]: 0.83 mg/kg; % Inhibition of bronchial eosinophilia ([4]; at 24 hours): 0%; Eosinophils in BALF (Mean ± SEM) ([4]; counted at 24 hours, vehicle 927 ± 131): 1148 ± 305 10^3 cells/m1 BALF

Q: With `CC1C(=O)OC2C(O)C34C5CC(C(C)(C)C)C36C(OC(=O)C6OS(=O)(=O)c3ccccc3)OC4(C(=O)O5)C12O` (centres unmarked) [Example 90, 10-benzenesulfonyloxy-Ginkgolide B] as the molecule, how does the IC50 ([1]; rabbit PRP, PAF 5×10^-9 M) read?
A: Its IC50 is 82.1 nM.

Q: Which IC50 ([1]; rabbit PRP, PAF 5×10^-9 M) does the source give for `CC1C(=O)OC2C(O)C34C5CC(C(C)(C)C)C36C(OC(=O)C6OCc3cc(C(C)(C)C)c(O)c(C(C)(C)C)c3)OC4(C(=O)O5)C12O` (centres unmarked) [Example 31] here?
A: The IC50 was 78.1 nM.

Q: `CC1C(=O)OC2C(O)C34C5CC(C(C)(C)C)C36C(OC(=O)C6OCc3ccc(Cl)nc3)OC4(C(=O)O5)C12O` (centres unmarked) [Example 107, 10-(6-chloro-3-pyridinyl)-methoxy-Ginkgolide B] was tested. Which IC50 ([1]; rabbit PRP, PAF 5×10^-9 M) did it give?
A: The IC50 was 157 nM.

Q: For `CC1C(=O)OC2C(O)C34C5CC(C(C)(C)C)C36C(OC(=O)C6OCCN3CCCCC3)OC4(C(=O)O5)C12O` (centres unmarked) [Example 118, 10-(2'-(1"-piperidinyl)-ethoxy)-Ginkgolide B], which IC50 ([1]; rabbit PRP, PAF 5×10^-9 M) is on record?
A: Its IC50 is 47.1 nM.

Q: Which IC50 ([1]; rabbit PRP, PAF 5×10^-9 M) does the source give for `CC1C(=O)OC2C(O)C34C5CC(C(C)(C)C)C36C(OC(=O)C6OCc3ccc(Cl)cc3Cl)OC4(C(=O)O5)C12O` (centres unmarked) [Example 2, 10-(2',4'-dichlorobenzyloxy)-Ginkgolide B] here?
A: The IC50 was 72.1 nM.

Q: Which results are given for `CC1C(=O)OC2C(O)C34C5CC(C(C)(C)C)C36C(OC(=O)C6OCc3ccccn3)OC4(C(=O)O5)C12O` (centres unmarked) [Example 99, 10-(2-pyridinyl)-methoxy-Ginkgolide B]?
A: IC50 [1]: 30.7 nM; % inhibition of Ag-induced bronchoconstriction [2, 5]: 42%; % inhibition of Ag-induced bronchoconstriction [2, 6]: 73%; % inhibition of Ag-induced bronchoconstriction [2, 7]: 100%; ED50 [2]: 0.31 mg/kg

Q: With `CC1C(=O)OC2C(O)C34C5CC(C(C)(C)C)C36C(OC(=O)C6OCc3ccc(Cl)cc3)OC4(C(=O)O5)C12O` (centres unmarked) [Example 3, 10-(4'-chlorobenzyloxy)-Ginkgolide B] as the molecule, how does the IC50 ([1]; rabbit PRP, PAF 5×10^-9 M) read?
A: The IC50 was 94.7 nM.

Q: How did the IC50 ([1]; rabbit PRP, PAF 5×10^-9 M) turn out when `CC1C(=O)OC2C(O)C34C5CC(C(C)(C)C)C36C(OC(=O)C6OCCCOc3ccccc3)OC4(C(=O)O5)C12O` (centres unmarked) [Example 78, 10-(3'-phenoxypropoxy)-Ginkgolide B] was run?
A: The IC50 was 159 nM.

Q: With `CC1C(=O)OC2C(O)C34C5CC(C(C)(C)C)C36C(OC(=O)C6OCc3ccncc3)OC4(C(=O)O5)C12O` (centres unmarked) [Example 109, 10-(4-pyridinyl)-methoxy-Ginkgolide B] as the molecule, how does the IC50 ([1]; rabbit PRP, PAF 5×10^-9 M) read?
A: The IC50 was 122 nM.

Q: For `COc1cc(COC2C(=O)OC3OC45C(=O)OC6CC(C(C)(C)C)C32C64C(O)C2OC(=O)C(C)C25O)cc(OC)c1O` (centres unmarked) [Example 32], which IC50 ([1]; rabbit PRP, PAF 5×10^-9 M) is on record?
A: The IC50 was 65.1 nM.
